In ChEMBL document CHEMBL1138058, “Discovery and evaluation of N-cyclopropyl- 2,4-difluoro-5-((2-(pyridin-2-ylamino)thiazol-5-ylmethyl)amino)benzamide (BMS-605541), a selective and orally efficacious inhibitor of vascular endothelial growth factor receptor-2” (J Med Chem, 2006):

How the values were obtained:
L2987 [1] = assay: Antiproliferative activity against L2987 cells; conditions: Homo sapiens
HUVEC = assay: Antiproliferative activity against VEGF-stimulated HUVEC; conditions: Homo sapiens
[2] = target: Cyclin-dependent kinase 2 (Homo sapiens, UniProt P24941); assay: Inhibition of CDK2
[3] = target: Vascular endothelial growth factor receptor 2 (Homo sapiens, UniProt P35968)
Vascular endothelial growth factor receptor 2, sequence (P35968 whole entry): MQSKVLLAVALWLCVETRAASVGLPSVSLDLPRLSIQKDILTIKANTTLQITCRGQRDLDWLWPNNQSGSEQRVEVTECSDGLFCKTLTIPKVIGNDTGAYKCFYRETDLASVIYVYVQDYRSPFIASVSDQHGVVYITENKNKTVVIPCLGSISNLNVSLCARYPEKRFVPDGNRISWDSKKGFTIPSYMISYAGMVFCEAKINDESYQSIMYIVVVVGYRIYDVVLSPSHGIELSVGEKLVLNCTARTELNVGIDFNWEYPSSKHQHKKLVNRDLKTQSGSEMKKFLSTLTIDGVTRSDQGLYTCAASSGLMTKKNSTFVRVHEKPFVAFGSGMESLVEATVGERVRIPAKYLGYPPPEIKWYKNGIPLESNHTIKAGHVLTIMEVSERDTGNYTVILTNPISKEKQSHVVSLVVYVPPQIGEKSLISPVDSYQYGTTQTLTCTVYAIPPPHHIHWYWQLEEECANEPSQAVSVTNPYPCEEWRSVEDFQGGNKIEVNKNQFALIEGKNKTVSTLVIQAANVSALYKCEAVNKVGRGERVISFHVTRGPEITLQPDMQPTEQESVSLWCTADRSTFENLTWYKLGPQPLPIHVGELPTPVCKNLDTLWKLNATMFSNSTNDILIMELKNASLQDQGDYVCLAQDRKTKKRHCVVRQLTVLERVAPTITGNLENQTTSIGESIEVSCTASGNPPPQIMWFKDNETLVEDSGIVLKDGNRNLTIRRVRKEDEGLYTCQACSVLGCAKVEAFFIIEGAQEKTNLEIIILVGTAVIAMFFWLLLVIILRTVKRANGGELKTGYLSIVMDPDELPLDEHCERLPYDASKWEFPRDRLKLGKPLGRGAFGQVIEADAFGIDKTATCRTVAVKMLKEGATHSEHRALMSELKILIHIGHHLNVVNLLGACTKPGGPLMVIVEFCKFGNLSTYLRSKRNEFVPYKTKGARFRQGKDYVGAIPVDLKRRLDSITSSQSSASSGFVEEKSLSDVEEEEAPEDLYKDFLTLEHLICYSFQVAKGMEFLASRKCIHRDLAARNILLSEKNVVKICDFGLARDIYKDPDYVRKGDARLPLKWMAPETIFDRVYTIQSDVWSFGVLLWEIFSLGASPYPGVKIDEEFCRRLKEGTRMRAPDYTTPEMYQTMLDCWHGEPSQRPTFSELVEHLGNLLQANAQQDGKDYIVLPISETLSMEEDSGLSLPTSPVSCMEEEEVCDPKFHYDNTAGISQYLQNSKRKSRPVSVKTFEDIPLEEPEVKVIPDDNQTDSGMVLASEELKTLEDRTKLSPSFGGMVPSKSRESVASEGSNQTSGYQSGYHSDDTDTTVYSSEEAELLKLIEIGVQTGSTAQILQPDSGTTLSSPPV

[4] = Cmax in cynomolgus monkey at 5 mg/kg, po; type: ADME, organism-based, Macaca fascicularis; set-up: dose 5 mg/kg, route oral; conditions: in vivo
[5] = Half life in Sprague-Dawley rat at 50 mg/kg, po; type: ADME, organism-based; set-up: dose 50 mg/kg, route oral; conditions: in vivo
[6] = Tmax in Balb/C mouse at 90 mg/kg, po; type: ADME, organism-based; set-up: dose 90 mg/kg, route oral; conditions: in vivo
[7] = Clearance in Balb/C mouse at 10 mg/kg, iv; type: ADME, organism-based; set-up: dose 10 mg/kg, route intravenous; conditions: in vivo
[8] = Volume of distribution in Balb/C mouse at 10 mg/kg, iv; type: ADME, organism-based; set-up: dose 10 mg/kg, route intravenous; conditions: in vivo, read-out: Vss
[9] = target: Receptor tyrosine-protein kinase erbB-2 (Homo sapiens, UniProt P04626); assay: Inhibition of Her2
HCT-116 [10] = assay: Inhibition of tumor growth in Athymic mouse xenografted with HCT116 at 25 mg/kg after 14 days; type: functional, Homo sapiens; conditions: HCT-116, 336 h, read-out: TGI
Rattus norvegicus = assay: AUC in Sprague-Dawley rat at 50 mg/kg, po; type: ADME, organism-based, Plasma; set-up: dose 50 mg/kg, route oral; conditions: in vivo
[11] = Half life in Balb/C mouse at 90 mg/kg, po; type: ADME, organism-based; set-up: dose 90 mg/kg, route oral; conditions: in vivo
[12] = Half life in cynomolgus monkey at 5 mg/kg, po; type: ADME, organism-based, Macaca fascicularis; set-up: dose 5 mg/kg, route oral; conditions: in vivo
[13] = target: Vascular endothelial growth factor receptor 2 (Mus musculus) (UniProt P35918); assay: Inhibition of FLK1
MAP kinase p38 = MAP kinase p38 (Homo sapiens, UniProt O15264+Q15759+Q16539+P53778); assay: Inhibition of p38; type: protein assay
L2987 [14] = assay: Inhibition of tumor growth in Athymic mouse xenografted with L2987 at 90 mg/kg after 14 days; type: functional, Homo sapiens; conditions: L2987, 336 h, read-out: TGI
[15] = Mean residence time in cynomolgus monkey at 5 mg/kg, po; type: ADME, organism-based, Macaca fascicularis; set-up: dose 5 mg/kg, route oral; conditions: in vivo
[16] = target: MAP kinase-activated protein kinase 2 (Homo sapiens, UniProt P49137); assay: Inhibition of MAPKAPK2
MAP kinase-activated protein kinase 2, sequence (P49137 whole entry): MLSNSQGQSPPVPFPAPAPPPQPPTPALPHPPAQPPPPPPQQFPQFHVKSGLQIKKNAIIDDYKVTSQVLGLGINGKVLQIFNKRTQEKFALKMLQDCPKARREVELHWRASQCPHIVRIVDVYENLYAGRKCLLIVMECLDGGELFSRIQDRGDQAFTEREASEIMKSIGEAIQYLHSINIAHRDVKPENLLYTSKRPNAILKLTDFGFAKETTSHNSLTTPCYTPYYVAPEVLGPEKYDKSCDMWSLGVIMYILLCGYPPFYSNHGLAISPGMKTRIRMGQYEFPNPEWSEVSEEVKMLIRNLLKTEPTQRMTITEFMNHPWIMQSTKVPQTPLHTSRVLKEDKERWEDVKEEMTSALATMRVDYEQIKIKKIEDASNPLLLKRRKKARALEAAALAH

Cynomolgus monkey [17] = assay: AUC in cynomolgus monkey at 5 mg/kg, po; type: ADME, organism-based, Macaca fascicularis, Plasma; set-up: dose 5 mg/kg, route oral; conditions: in vivo
[18] = Volume of distribution in Sprague-Dawley rat at 10 mg/kg, iv; type: ADME, organism-based; set-up: dose 10 mg/kg, route intravenous; conditions: in vivo, read-out: Vss
[19] = Cmax in Balb/C mouse at 90 mg/kg, po; type: ADME, organism-based; set-up: dose 90 mg/kg, route oral; conditions: in vivo
[20] = target: Protein kinase C delta type (Homo sapiens, UniProt Q05655); assay: Inhibition of PKCdelta
[21] = target: Protein kinase C alpha type (Homo sapiens, UniProt P17252); assay: Inhibition of PKCalpha
[22] = target: Voltage-gated inwardly rectifying potassium channel KCNH2 (Homo sapiens, UniProt Q12809); assay: Inhibition of human ERG expressed in HEK293 cells; type: cell-based
Voltage-gated inwardly rectifying potassium channel KCNH2, sequence (Q12809 whole entry): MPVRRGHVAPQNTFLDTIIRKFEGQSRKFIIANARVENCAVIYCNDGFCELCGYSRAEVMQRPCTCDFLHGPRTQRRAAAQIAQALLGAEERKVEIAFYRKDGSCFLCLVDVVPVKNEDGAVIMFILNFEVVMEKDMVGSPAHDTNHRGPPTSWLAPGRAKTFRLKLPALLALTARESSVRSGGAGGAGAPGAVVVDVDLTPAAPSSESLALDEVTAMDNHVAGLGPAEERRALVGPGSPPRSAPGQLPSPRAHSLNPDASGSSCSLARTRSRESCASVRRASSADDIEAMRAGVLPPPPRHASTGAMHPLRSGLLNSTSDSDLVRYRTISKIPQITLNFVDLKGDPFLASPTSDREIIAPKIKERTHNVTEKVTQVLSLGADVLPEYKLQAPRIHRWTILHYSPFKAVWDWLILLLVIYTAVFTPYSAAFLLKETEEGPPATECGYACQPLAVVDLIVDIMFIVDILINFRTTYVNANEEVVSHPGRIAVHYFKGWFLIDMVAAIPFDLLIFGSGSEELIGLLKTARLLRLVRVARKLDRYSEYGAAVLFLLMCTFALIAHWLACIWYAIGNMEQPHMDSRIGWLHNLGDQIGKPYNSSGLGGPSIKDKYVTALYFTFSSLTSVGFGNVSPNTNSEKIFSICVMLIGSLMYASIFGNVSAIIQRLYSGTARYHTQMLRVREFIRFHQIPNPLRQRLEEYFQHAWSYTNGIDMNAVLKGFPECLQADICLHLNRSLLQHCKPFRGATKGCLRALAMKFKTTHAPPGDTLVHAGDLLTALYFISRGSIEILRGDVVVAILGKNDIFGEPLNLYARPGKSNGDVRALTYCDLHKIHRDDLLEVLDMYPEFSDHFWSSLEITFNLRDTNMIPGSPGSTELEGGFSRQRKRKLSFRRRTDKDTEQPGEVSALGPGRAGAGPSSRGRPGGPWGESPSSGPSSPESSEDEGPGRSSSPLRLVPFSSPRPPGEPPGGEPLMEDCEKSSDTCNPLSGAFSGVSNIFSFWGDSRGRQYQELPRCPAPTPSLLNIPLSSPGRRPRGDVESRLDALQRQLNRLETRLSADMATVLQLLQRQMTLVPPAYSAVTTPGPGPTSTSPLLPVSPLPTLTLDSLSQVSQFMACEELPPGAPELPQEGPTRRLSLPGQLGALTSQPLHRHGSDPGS

Mus musculus = assay: AUC (0-24h) in Balb/C mouse at 90 mg/kg, po; type: ADME, organism-based, Plasma; set-up: time < 24 hr, dose 90 mg/kg, route oral; conditions: in vivo
[23] = target: Tyrosine-protein kinase SYK (Homo sapiens, UniProt P43405); assay: Inhibition of Syk
[24] = Tmax in Sprague-Dawley rat at 50 mg/kg, po; type: ADME, organism-based; set-up: dose 50 mg/kg, route oral; conditions: in vivo
L2987 [25] = assay: Inhibition of tumor growth in Athymic mouse xenografted with L2987 at 50 mg/kg after 14 days; type: functional, Homo sapiens; conditions: L2987, 336 h, read-out: TGI
[26] = Clearance in Sprague-Dawley rat at 10 mg/kg, iv; type: ADME, organism-based; set-up: dose 10 mg/kg, route intravenous; conditions: in vivo
[27] = target: Platelet-derived growth factor receptor beta (Homo sapiens, UniProt P09619); assay: Inhibition of PDGFR beta
[28] = Bioavailability in Sprague-Dawley rat at 50 mg/kg, po; type: ADME, organism-based; conditions: in vivo
[29] = target: Mast/stem cell growth factor receptor Kit (Homo sapiens, UniProt P10721); assay: Inhibition of c-kit
Mast/stem cell growth factor receptor Kit, sequence (P10721 whole entry): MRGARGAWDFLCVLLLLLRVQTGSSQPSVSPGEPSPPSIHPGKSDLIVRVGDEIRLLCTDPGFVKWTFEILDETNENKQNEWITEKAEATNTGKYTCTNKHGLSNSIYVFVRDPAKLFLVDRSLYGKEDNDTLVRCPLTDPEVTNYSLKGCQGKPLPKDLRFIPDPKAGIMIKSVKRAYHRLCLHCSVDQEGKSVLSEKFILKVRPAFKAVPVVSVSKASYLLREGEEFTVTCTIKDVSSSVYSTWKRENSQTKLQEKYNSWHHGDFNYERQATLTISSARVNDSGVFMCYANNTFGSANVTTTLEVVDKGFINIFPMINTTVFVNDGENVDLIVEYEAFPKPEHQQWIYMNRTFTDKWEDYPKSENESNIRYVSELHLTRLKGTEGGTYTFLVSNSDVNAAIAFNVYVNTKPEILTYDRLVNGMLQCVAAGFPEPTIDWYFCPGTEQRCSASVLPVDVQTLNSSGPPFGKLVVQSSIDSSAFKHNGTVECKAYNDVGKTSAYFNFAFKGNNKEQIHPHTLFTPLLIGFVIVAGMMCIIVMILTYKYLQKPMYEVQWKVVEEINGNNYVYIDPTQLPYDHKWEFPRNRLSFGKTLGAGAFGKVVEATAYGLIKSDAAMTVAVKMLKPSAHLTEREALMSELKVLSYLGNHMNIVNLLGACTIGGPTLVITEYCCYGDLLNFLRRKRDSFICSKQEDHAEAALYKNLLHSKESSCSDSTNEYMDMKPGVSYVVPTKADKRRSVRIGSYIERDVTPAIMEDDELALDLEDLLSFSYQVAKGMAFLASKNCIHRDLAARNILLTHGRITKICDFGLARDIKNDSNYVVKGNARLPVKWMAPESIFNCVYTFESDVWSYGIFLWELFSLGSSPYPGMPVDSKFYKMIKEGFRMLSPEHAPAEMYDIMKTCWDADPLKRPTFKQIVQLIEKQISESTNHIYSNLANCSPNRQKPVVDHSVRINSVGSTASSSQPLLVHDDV

[30] = target: Inhibitor of NF-kappa-B kinase (IKK) (Homo sapiens, UniProt O14920+O15111+Q9Y6K9); assay: Inhibition of IKK; type: protein-complex assay
SRSF protein kinase 1 = SRSF protein kinase 1 (Homo sapiens, UniProt Q96SB4); assay: Inhibition of SRPK1
[31] = target: Glycogen synthase kinase-3 (Homo sapiens, UniProt P49840+P49841); assay: Inhibition of GSK3; type: protein assay
L2987 [32] = assay: Inhibition of tumor growth in Athymic mouse xenografted with L2987 at 25 mg/kg after 14 days; type: functional, Homo sapiens; conditions: L2987, 336 h, read-out: TGI
[33] = target: Vascular endothelial growth factor receptor 1 (Homo sapiens, UniProt P17948); assay: Inhibition of VEGFR1
[34] = target: Proto-oncogene tyrosine-protein kinase Src (Homo sapiens, UniProt P12931); assay: Inhibition of Src
[35] = target: Serine/threonine-protein kinase AKT (Homo sapiens, UniProt P31751+Q9Y243+P31749); assay: Inhibition of AKT; type: protein assay
[36] = Cmax in Sprague-Dawley rat at 50 mg/kg, po; type: ADME, organism-based; set-up: dose 50 mg/kg, route oral; conditions: in vivo
[37] = Clearance in cynomolgus monkey at 1 mg/kg, iv; conditions: in vivo
[38] = target: Protein kinase C zeta type (Homo sapiens, UniProt Q05513); assay: Inhibition of PKCzeta
[39] = Mean residence time in Sprague-Dawley rat at 50 mg/kg, po; type: ADME, organism-based; set-up: dose 50 mg/kg, route oral; conditions: in vivo
L2987 [40] = assay: Inhibition of tumor growth in Athymic mouse xenografted with L2987 at 180 mg/kg after 14 days; type: functional, Homo sapiens; conditions: L2987, 336 h, read-out: TGI
[41] = target: Fibroblast growth factor receptor 1 (Homo sapiens, UniProt P11362); assay: Inhibition of FGFR1
[42] = Bioavailability in cynomolgus monkey at 5 mg/kg, po; type: ADME, organism-based, Macaca fascicularis; conditions: in vivo
Cynomolgus monkey [43] = assay: Volume of distribution in cynomolgus monkey at 1 mg/kg, iv; conditions: in vivo
[44] = target: Insulin-like growth factor 1 receptor (Homo sapiens, UniProt P08069); assay: Inhibition of IGF1R
[45] = target: Tyrosine-protein kinase JAK3 (Homo sapiens, UniProt P52333); assay: Inhibition of JAK3
[46] = Bioavailability in Balb/C mouse at 90 mg/kg, po; type: ADME, organism-based; conditions: in vivo
HCT-116 [47] = assay: Inhibition of tumor growth in Athymic mouse xenografted with HCT116 at 12.5 mg/kg after 14 days; type: functional, Homo sapiens; conditions: HCT-116, 336 h, read-out: TGI
[48] = target: Dual specificity mitogen-activated protein kinase kinase 1 (Homo sapiens, UniProt Q02750); assay: Inhibition of MEK
Dual specificity mitogen-activated protein kinase kinase 1, sequence (Q02750 whole entry): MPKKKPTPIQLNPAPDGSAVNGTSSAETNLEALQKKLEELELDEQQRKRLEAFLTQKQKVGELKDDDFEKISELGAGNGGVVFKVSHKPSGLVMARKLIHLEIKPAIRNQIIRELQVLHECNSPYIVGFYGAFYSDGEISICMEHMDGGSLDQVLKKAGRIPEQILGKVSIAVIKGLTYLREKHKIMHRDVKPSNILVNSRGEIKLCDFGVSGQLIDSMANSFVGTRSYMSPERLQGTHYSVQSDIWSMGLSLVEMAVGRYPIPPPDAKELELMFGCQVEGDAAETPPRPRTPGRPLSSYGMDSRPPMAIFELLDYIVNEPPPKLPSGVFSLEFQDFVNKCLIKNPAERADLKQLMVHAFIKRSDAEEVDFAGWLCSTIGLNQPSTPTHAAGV

[49] = Mean residence time in Balb/C mouse at 90 mg/kg, po; type: ADME, organism-based; set-up: dose 90 mg/kg, route oral; conditions: in vivo
L2987 [50] = assay: Inhibition of tumor growth in Athymic mouse xenografted with L2987 at 60 mg/kg after 14 days; type: functional, Homo sapiens; conditions: L2987, 336 h, read-out: TGI
[51] = target: Tyrosine-protein kinase ITK/TSK (Homo sapiens, UniProt Q08881); assay: Inhibition of Itk
HCT-116 [52] = assay: Inhibition of tumor growth in Athymic mouse xenografted with HCT116 at 50 mg/kg after 14 days; type: functional, Homo sapiens; conditions: HCT-116, 336 h, read-out: TGI
[53] = Tmax in cynomolgus monkey at 5 mg/kg, po; type: ADME, organism-based, Macaca fascicularis; set-up: dose 5 mg/kg, route oral; conditions: in vivo
[54] = target: Protein kinase C eta type (Homo sapiens, UniProt P24723); assay: Inhibition of PKCeta
Protein kinase C eta type, sequence (P24723 whole entry): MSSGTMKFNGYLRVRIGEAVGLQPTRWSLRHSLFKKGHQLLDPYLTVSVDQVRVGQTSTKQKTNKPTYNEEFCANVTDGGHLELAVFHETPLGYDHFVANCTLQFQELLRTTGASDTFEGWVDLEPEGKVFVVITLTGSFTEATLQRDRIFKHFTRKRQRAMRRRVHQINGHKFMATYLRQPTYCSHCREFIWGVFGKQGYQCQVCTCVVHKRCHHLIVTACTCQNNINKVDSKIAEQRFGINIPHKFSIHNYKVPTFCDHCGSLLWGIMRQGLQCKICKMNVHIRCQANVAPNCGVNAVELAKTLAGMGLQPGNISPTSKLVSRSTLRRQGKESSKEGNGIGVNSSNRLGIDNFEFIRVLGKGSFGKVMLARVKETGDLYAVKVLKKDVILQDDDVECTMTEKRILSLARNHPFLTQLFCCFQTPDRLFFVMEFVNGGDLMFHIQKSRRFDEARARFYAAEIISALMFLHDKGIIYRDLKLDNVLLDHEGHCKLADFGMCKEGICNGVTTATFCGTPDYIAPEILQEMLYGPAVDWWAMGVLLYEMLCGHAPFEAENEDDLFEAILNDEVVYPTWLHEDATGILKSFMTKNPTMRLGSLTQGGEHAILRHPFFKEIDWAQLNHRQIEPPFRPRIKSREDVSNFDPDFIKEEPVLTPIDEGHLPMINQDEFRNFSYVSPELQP

O=C(NC1CCCC1)c1ccc(F)c(NCc2cnc(Nc3ccccn3)s2)c1
IC50 (L2987 [1]): > 2.5 µM

O=C(NC1CC1)c1ccc(F)c(NCc2cnc(Nc3ccccn3)s2)c1
IC50 (L2987 [1]): > 2.5 µM | IC50 (HUVEC): 0.014 µM

CNC(=O)c1cccc(NCc2cnc(Nc3ccccn3)s2)c1
IC50 (L2987 [1]): > 2.5 µM

O=C(NC1CC1)c1ccc(F)c(CCc2cnc(Nc3ccccn3)s2)c1
IC50 (L2987 [1]): > 2.5 µM | IC50 (HUVEC): 0.005 µM

COc1ccc(C(=O)Nc2ncc(SCc3ncc(C(C)(C)C)o3)s2)cc1OC
IC50 [2]: 0.05 µM | IC50 [3]: 1.9 µM

CNC(=O)c1ccc(F)c(NCc2cnc(Nc3ccccn3)s2)c1
IC50 (L2987 [1]): > 2.5 µM | IC50 (HUVEC): 0.02 µM

O=C(NC1CC1)c1cc(NCc2cnc(Nc3ccccn3)s2)c(F)cc1F
IC50 (L2987 [1]): > 2.5 µM | Cmax [4]: 8 µM | half-life [5]: 2.2 h | Tmax [6]: 0.5 h | clearance [7]: 11.8 mL/min/kg | Vd [8]: 1.7 L/kg | IC50 [9]: > 50 µM | inhibition in vivo at 25 mg/kg (HCT-116 [10]): 51% | AUC (Rattus norvegicus): 202 µM·h | half-life [11]: 1.7 h | half-life [12]: 7.1 h | IC50 [13]: 0.04 µM | IC50 (MAP kinase p38): > 5 µM | inhibition in vivo at 90 mg/kg (L2987 [14]): 55% | MRT [15]: 7.9 h | IC50 [16]: > 50 µM | AUC (Cynomolgus monkey [17]): 28.5 µM·h | Vd [18]: 1.1 L/kg | Cmax [19]: 148 µM | IC50 [20]: > 40 µM | IC50 [21]: > 40 µM | IC50 [22]: 16.6 µM | AUC (Mus musculus): 649 µM·h | IC50 [2]: > 10 µM | IC50 [23]: > 50 µM | Tmax [24]: 2 h | inhibition in vivo at 50 mg/kg (L2987 [25]): 67% | clearance [26]: 13.6 mL/min/kg | IC50 [3]: 0.023 µM | IC50 [27]: 0.2 µM | bioavailability [28]: 100% | IC50 [29]: 0.37 µM | IC50 [30]: > 10 µM | IC50 (SRSF protein kinase 1): > 10 µM | IC50 [31]: > 5 µM | inhibition in vivo at 25 mg/kg (L2987 [32]): 23% | IC50 [33]: 0.4 µM | IC50 [34]: > 10 µM | IC50 [35]: > 5 µM | Cmax [36]: 44 µM | clearance [37]: 3.9 mL/min/kg | IC50 [38]: > 40 µM | MRT [39]: 3.5 h | inhibition in vivo at 180 mg/kg (L2987 [40]): 67% | IC50 [41]: > 5 µM | bioavailability [42]: 52% | Vss (Cynomolgus monkey [43]): 1.6 L/kg | IC50 [44]: > 25 µM | IC50 [45]: > 50 µM | bioavailability [46]: 100% | inhibition in vivo at 12.5 mg/kg (HCT-116 [47]): 21% | IC50 [48]: > 5 µM | MRT [49]: 3.4 h | inhibition in vivo at 60 mg/kg (L2987 [50]): 16% | IC50 (HUVEC): 0.025 µM | IC50 [51]: > 50 µM | inhibition in vivo at 50 mg/kg (HCT-116 [52]): 64% | Tmax [53]: 0.75 h | IC50 [54]: > 40 µM

CNC(=O)c1cc(NCc2cnc(Nc3ccccn3)s2)c(F)cc1F
IC50 (L2987 [1]): > 2.5 µM | IC50 (HUVEC): 0.052 µM

O=C(NCc1ccccc1)c1ccc(F)c(NCc2cnc(Nc3ccccn3)s2)c1
IC50 (L2987 [1]): > 2.5 µM | IC50 (HUVEC): 0.12 µM

CONC(=O)c1cccc(CSc2cnc(Nc3ccccn3)s2)c1
IC50 (L2987 [1]): > 2.5 µM | IC50 (HUVEC): 0.11 µM

CNC(=O)c1cccc(CSc2cnc(Nc3ccccn3)s2)c1
IC50 (L2987 [1]): > 2.5 µM

O=C(NCc1ccccn1)c1ccc(F)c(NCc2cnc(Nc3ccccn3)s2)c1
IC50 (L2987 [1]): > 2.5 µM | IC50 (HUVEC): 0.053 µM

O=C(NCCN1CCOCC1)c1ccc(F)c(NCc2cnc(Nc3ccccn3)s2)c1
IC50 (L2987 [1]): > 2.5 µM
